Experimental data as given in PubChem BioAssay (NCI).
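Dose response: 5 concentrations. Exposure: 48 h. Format: 96-well plates. Endpoint: linear interpolation; highest concentration if not reached. Here, GI50 denotes the concentration required for 50% inhibition of growth. TGI: concentration producing complete growth inhibition.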

Experiments:
Assay in all cases: DTP human tumour cell line panel, 48 h
786-0 renal = tested on: 786-0 renal
A498 renal = tested on: A498 renal
A549 NSCLC = tested on: A549 NSCLC
ACHN renal = tested on: ACHN renal
BT-549 breast = tested on: BT-549 breast
CAKI-1 renal = tested on: CAKI-1 renal
CCRF-CEM leukemia = tested on: CCRF-CEM leukemia
COLO 205 colon = tested on: COLO 205 colon
DU-145 prostate = tested on: DU-145 prostate
EKVX NSCLC = tested on: EKVX NSCLC
HCC-2998 colon = tested on: HCC-2998 colon
HCT-116 colon = tested on: HCT-116 colon
HCT-15 colon = tested on: HCT-15 colon
HOP-62 NSCLC = tested on: HOP-62 NSCLC
HOP-92 NSCLC = tested on: HOP-92 NSCLC
HS 578T breast = tested on: HS 578T breast
HT29 colon = tested on: HT29 colon
IGROV1 ovarian = tested on: IGROV1 ovarian
K-562 leukemia = tested on: K-562 leukemia
KM12 colon = tested on: KM12 colon
LOX IMVI melanoma = tested on: LOX IMVI melanoma
M14 melanoma = tested on: M14 melanoma
MALME-3M melanoma = tested on: MALME-3M melanoma
MCF7 breast = tested on: MCF7 breast
MDA-MB-231 breast = tested on: MDA-MB-231 breast
MDA-MB-435 = tested on: MDA-MB-435
MOLT-4 leukemia = tested on: MOLT-4 leukemia
NCI-H226 lung = tested on: NCI-H226 lung
NCI-H23 lung = tested on: NCI-H23 lung
NCI-H460 lung = tested on: NCI-H460 lung
NCI-H522 lung = tested on: NCI-H522 lung
NCI/ADR-RES ovarian = tested on: NCI/ADR-RES ovarian
OVCAR-3 ovarian = tested on: OVCAR-3 ovarian
OVCAR-4 ovarian = tested on: OVCAR-4 ovarian
OVCAR-5 ovarian = tested on: OVCAR-5 ovarian
OVCAR-8 ovarian = tested on: OVCAR-8 ovarian
PC-3 prostate = tested on: PC-3 prostate
RPMI-8226 leukemia = tested on: RPMI-8226 leukemia
RXF 393 renal = tested on: RXF 393 renal
SF-268 CNS = tested on: SF-268 CNS
SF-295 CNS = tested on: SF-295 CNS
SF-539 CNS = tested on: SF-539 CNS
SK-MEL-2 melanoma = tested on: SK-MEL-2 melanoma
SK-MEL-28 melanoma = tested on: SK-MEL-28 melanoma
SK-MEL-5 melanoma = tested on: SK-MEL-5 melanoma
SK-OV-3 ovarian = tested on: SK-OV-3 ovarian
SN12C renal = tested on: SN12C renal
SNB-19 CNS = tested on: SNB-19 CNS
SNB-75 CNS = tested on: SNB-75 CNS
SR leukemia = tested on: SR leukemia
SW-620 colon = tested on: SW-620 colon
T-47D breast = tested on: T-47D breast
TK-10 renal = tested on: TK-10 renal
U251 CNS = tested on: U251 CNS
UACC-257 melanoma = tested on: UACC-257 melanoma
UACC-62 melanoma = tested on: UACC-62 melanoma
UO-31 renal = tested on: UO-31 renal

Compound O=C(Nc1cccc(-c2ccc(Cl)c(C(F)(F)F)c2)c1)C1CCN(Cc2cccc3cccnc23)CC1 has a GI50 (786-0 renal) of 1.7 µM, a TGI (786-0 renal) of 3.26 µM and a GI50 (A498 renal) of 1.33 µM. The TGI (A498 renal) was 2.65 µM, the GI50 (A549 NSCLC) was 1.91 µM and the TGI (A549 NSCLC) was 3.85 µM. For the same compound, the GI50 (ACHN renal) was 1.76 µM, the TGI (ACHN renal) was 3.14 µM and the GI50 (BT-549 breast) was 1.65 µM. For the same compound, the TGI (BT-549 breast) was 3.18 µM, the GI50 (CAKI-1 renal) was 1.61 µM and the TGI (CAKI-1 renal) was 2.97 µM. The GI50 (CCRF-CEM leukemia) was 2.19 µM, the TGI (CCRF-CEM leukemia) was 5.85 µM and the GI50 (COLO 205 colon) was 1.45 µM. The TGI (COLO 205 colon) was 3.12 µM, the GI50 (DU-145 prostate) was 1.79 µM and the TGI (DU-145 prostate) was 3.21 µM. For the same compound, the GI50 (EKVX NSCLC) was 1.73 µM, the TGI (EKVX NSCLC) was 3.15 µM and the GI50 (HCC-2998 colon) was 1.43 µM. For the same compound, the TGI (HCC-2998 colon) was 2.85 µM, the GI50 (HCT-116 colon) was 1.26 µM and the TGI (HCT-116 colon) was 2.76 µM. For the same compound, the GI50 (HCT-15 colon) was 1.37 µM, the TGI (HCT-15 colon) was 2.79 µM and the GI50 (HOP-62 NSCLC) was 1.85 µM. The TGI (HOP-62 NSCLC) was 3.74 µM, the GI50 (HOP-92 NSCLC) was 1.36 µM and the TGI (HOP-92 NSCLC) was 2.83 µM. It also gave a GI50 (HS 578T breast) of 2.14 µM, a TGI (HS 578T breast) of 4.94 µM and a GI50 (HT29 colon) of 1.21 µM. It also gave a TGI (HT29 colon) of 3.33 µM, a GI50 (IGROV1 ovarian) of 1.55 µM and a TGI (IGROV1 ovarian) of 2.99 µM. For the same compound, the GI50 (K-562 leukemia) was 1.1 µM, the TGI (K-562 leukemia) was 5.99 µM and the GI50 (KM12 colon) was 1.8 µM. It also gave a TGI (KM12 colon) of 3.43 µM, a GI50 (LOX IMVI melanoma) of 1.5 µM and a TGI (LOX IMVI melanoma) of 2.89 µM. For the same compound, the GI50 (M14 melanoma) was 1.64 µM, the TGI (M14 melanoma) was 3.16 µM and the GI50 (MALME-3M melanoma) was 1.65 µM. It also gave a TGI (MALME-3M melanoma) of 3.08 µM, a GI50 (MCF7 breast) of 1.44 µM and a TGI (MCF7 breast) of 2.95 µM. For the same compound, the GI50 (MDA-MB-231 breast) was 1.84 µM, the TGI (MDA-MB-231 breast) was 3.41 µM and the GI50 (MDA-MB-435) was 1.71 µM. The TGI (MDA-MB-435) was 3.1 µM, the GI50 (MOLT-4 leukemia) was 1.79 µM and the TGI (MOLT-4 leukemia) was 4.52 µM. It also gave a GI50 (NCI-H226 lung) of 1.88 µM, a TGI (NCI-H226 lung) of 3.89 µM and a GI50 (NCI-H23 lung) of 1.64 µM. The TGI (NCI-H23 lung) was 3.19 µM, the GI50 (NCI-H460 lung) was 1.87 µM and the TGI (NCI-H460 lung) was 3.55 µM. The GI50 (NCI-H522 lung) was 1.73 µM, the TGI (NCI-H522 lung) was 3.68 µM and the GI50 (NCI/ADR-RES ovarian) was 1.69 µM. For the same compound, the TGI (NCI/ADR-RES ovarian) was 3.31 µM, the GI50 (OVCAR-3 ovarian) was 1.72 µM and the TGI (OVCAR-3 ovarian) was 3.17 µM. It also gave a GI50 (OVCAR-4 ovarian) of 1.59 µM, a TGI (OVCAR-4 ovarian) of 3.08 µM and a GI50 (OVCAR-5 ovarian) of 1.57 µM. For the same compound, the TGI (OVCAR-5 ovarian) was 2.92 µM, the GI50 (OVCAR-8 ovarian) was 1.93 µM and the TGI (OVCAR-8 ovarian) was 4.19 µM. The GI50 (PC-3 prostate) was 1.41 µM, the TGI (PC-3 prostate) was 2.93 µM and the GI50 (RPMI-8226 leukemia) was 2.07 µM. It also gave a TGI (RPMI-8226 leukemia) of 5.4 µM, a GI50 (RXF 393 renal) of 1.27 µM and a TGI (RXF 393 renal) of 2.61 µM. For the same compound, the GI50 (SF-268 CNS) was 1.79 µM, the TGI (SF-268 CNS) was 3.55 µM and the GI50 (SF-295 CNS) was 1.73 µM. It also gave a TGI (SF-295 CNS) of 3.22 µM, a GI50 (SF-539 CNS) of 1.76 µM and a TGI (SF-539 CNS) of 3.16 µM. For the same compound, the GI50 (SK-MEL-2 melanoma) was 1.99 µM, the TGI (SK-MEL-2 melanoma) was 3.85 µM and the GI50 (SK-MEL-28 melanoma) was 1.75 µM. It also gave a TGI (SK-MEL-28 melanoma) of 3.14 µM, a GI50 (SK-MEL-5 melanoma) of 1.53 µM and a TGI (SK-MEL-5 melanoma) of 2.89 µM. For the same compound, the GI50 (SK-OV-3 ovarian) was 1.76 µM, the TGI (SK-OV-3 ovarian) was 3.37 µM and the GI50 (SN12C renal) was 1.6 µM. It also gave a TGI (SN12C renal) of 3.03 µM, a GI50 (SNB-19 CNS) of 1.74 µM and a TGI (SNB-19 CNS) of 3.18 µM. It also gave a GI50 (SNB-75 CNS) of 1.39 µM, a TGI (SNB-75 CNS) of 2.71 µM and a GI50 (SR leukemia) of 1.52 µM. For the same compound, the TGI (SR leukemia) was 4.49 µM, the GI50 (SW-620 colon) was 1.77 µM and the TGI (SW-620 colon) was 3.54 µM. For the same compound, the GI50 (T-47D breast) was 1.61 µM, the TGI (T-47D breast) was 3.6 µM and the GI50 (TK-10 renal) was 1.63 µM. The TGI (TK-10 renal) was 3.16 µM, the GI50 (U251 CNS) was 1.71 µM and the TGI (U251 CNS) was 3.29 µM. It also gave a GI50 (UACC-257 melanoma) of 1.83 µM, a TGI (UACC-257 melanoma) of 3.62 µM and a GI50 (UACC-62 melanoma) of 1.69 µM. It also gave a TGI (UACC-62 melanoma) of 3.09 µM, a GI50 (UO-31 renal) of 1.25 µM and a TGI (UO-31 renal) of 2.52 µM.
